From US11952365B2, “Anti-viral compounds” (Aligos Therapeutics, Inc., priority 2020, dated 2024)
Where two headings read alike, the source gives them in different places.

Legend:
[1] = test system: human beta-coronavirus OC43; experiment: microbe, parasite or virus in culture; type: cell-based; conditions: Betacoronavirus 1, OC43, HeLa, 144 h
[2] = Cytotoxicity plates without OC43 virus (cell-titer-glo); type: cell-based, human; conditions: human; HeLa cells without OC43 virus, class symbols
Method in brief: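 HeLa cells seeded overnight, then treated with serially diluted compounds in 2% FBS EMEM, uninfected, in parallel with the OC43 antiviral plates. Incubated 6 days at 33 °C; viability read by CellTiter-Glo luminescence.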

[3] = biological target: 3CLpro (Severe acute respiratory syndrome coronavirus 2, UniProt P0DTD1); experiment: SARS-CoV-2 3CLpro protease assay (duplex, SAMDI-MS); type: biochemical; parameters: For the duplex assay, 3CLpro and HRV3C was added; conditions: 30 mins preincubation, class symbols
[4] = test system: SARS-CoV-2-GHB-03021/2020; experiment: microbe, parasite or virus in culture; type: cell-based; conditions: Severe acute respiratory syndrome coronavirus 2, Vero C1008, 96 h; read-out: VeroE6 + CP (EC50)
[5] = biological target: HRV3C (Human rhinovirus 14, UniProt P03303); experiment: HRV3C protease assay (duplex, SAMDI-MS); type: biochemical, HRV; conditions: 30 mins preincubation
Method in brief: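 Duplex format with 3CLpro; 30 min enzyme–compound preincubation, 30 min reaction with two peptide substrates, ambient temp. Stop: 0.5% formic acid, neutralized with 1% NaHCO3 (finals). Readout SAMDI-MS, product AUC over internal standard AUC; four-parameter IC50.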

[6] = in vitro; conditions: African green monkey, VeroE6 + CP (CC50), Vero E6-eGFP cells with CP-100356, absence of virus, MTS
[7] = test system: SARS-CoV-2-GHB-03021/2020; experiment: SARS-CoV-2 Infection Model in Huh7 Cells; type: cell-based; conditions: Severe acute respiratory syndrome coronavirus 2, Huh-7, 96 h, SARS-CoV-2, day 4 p.i., MTS
[8] = in vitro; conditions: human
[9] = biological target: T1, human cathepsin L (Homo sapiens, UniProt P07711); experiment: cathepsin L assay; type: biochemical; conditions: 10 pM human cathepsin L, Z-FR-AMC 2 μM, class symbols
T1 construct: purchased R&D Systems
Method in brief: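 Human cathepsin L at 10 pM was preincubated 30 min with compound, then reaction started with Z-FR-AMC (2 μM final). Fluorescence (355/460 nm) read every 2 min for 30 min; IC50 from four-parameter curve fit.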

[10] = OC43 in HeLa cells, 6 days at 33° C., class symbols, read-out: EC50
[11] = 3CLpro, read-out: SARS-Cov-2 IC50
[12] = HRV3C, bound, read-out: HRV IC50
[13] = OC43 in HeLa cells, 6 days at 33° C., bound, read-out: EC50
[14] = HRV3C, class symbols, read-out: HRV IC50

Compound | EC50 [1, 10] [µM] | CC50 at 6 days [2] [µM] | IC50 [3, 11] [µM] | EC50 [4] [µM] | IC50 [5, 12] [µM] | CC50 ([6]; numeric bounds) [µM] | EC50 ([7]; class symbols) [µM] | CC50 [8] [µM] | IC50 [9] [µM] | EC50 [1, 13] [µM] | EC50 ([7]; numeric bounds) [µM] | IC50 [5, 14] [µM] | CC50 ([6]; class symbols) [µM] | IC50 ([3]; SARS-Cov-2 IC50, 3CLpro) [µM] | IC50 ([5]; HRV IC50, HRV3C, bound) [µM] | EC50 [1] [µM] | IC50 ([5]; HRV IC50, HRV3C, class symbols) [µM]
COc1cccc2[nH]c(C(=O)N3C[C@@H]4CCC[C@@H]4[C@H]3C(=O)N[C@@H](C[C@@H]3CCNC3=O)C(=O)COP(=O)(O)O)cc12 [Compound 61, (3S)-3-1{[(1S,3aR,6aS)-2-(4-methoxy-1H-indole-2-carbonyl)-hexahydro-1H-cyclopenta[c]pyrrol-1-yl]formamido}-2-oxo-4-[(3S)-2-oxopyrrolidin-3-yl]butoxyphosphonic acid] | 0.1 to 1 | > 10 | 0.2 to 2 | 1 to 10 | > 10 | > 100 | 1 to 10 | > 100 | ≥ 10 |  |  |  |  |  |  |  | 
COc1cccc2[nH]c(C(=O)N3C[C@@H]4CCC[C@@H]4[C@H]3C(=O)N[C@@H](CN3CCCNC3=O)C(=O)C(=O)NC3CC3)cc12 [Compound 118] |  | > 10 | 2 to 20 | > 50 | > 10 | > 50 |  | > 10 | ≥ 10 | > 10 | > 50 |  |  |  |  |  | 
COc1cccc2[nH]c(C(=O)N3CCc4ccccc4[C@H]3C(=O)N[C@@H](C[C@@H]3CCNC3=O)C(=O)C(=O)NC3CC3)cc12 [Compound 102] | 1 to 10 | > 10 | 0.2 to 2 | 1 to 10 | > 10 | > 100 | 10 to 100 | > 100 | ≥ 10 |  |  |  |  |  |  |  | 
O=C1NCC[C@H]1C[C@H](NC(=O)[C@@H]1[C@H]2CCC[C@H]2CN1C(=O)c1cc2c(Cl)cc(Cl)cc2[nH]1)C(=O)CO [Compound 91, (1S,3aR,6aS)-2-(4,6-dichloro-1H-indole-2-carbonyl)-N-[(2S)-4-hydroxy-3-oxo-1-[(3S)-2-oxopyrrolidin-3-yl]butan-2-yl]-hexahydro-1H-cyclopenta[c]pyrrole-1-carboxamide] | < 0.1 | > 10 | < 0.02 | < 1 |  |  | < 1 | > 10 | ≥ 10 |  |  | 2 to 20 | > 10 |  |  |  | 
O=C1NCC[C@H]1C[C@H](NC(=O)[C@@H]1[C@H]2CCC[C@H]2CN1C(=O)c1cc2c(Cl)ccc(Oc3ccccc3)c2[nH]1)C(=O)CO [Compound 137, (1S,3aR,6aS)-2-(4-chloro-7-phenoxy-1H-indole-2-carbonyl)-N-[(2S)-4-hydroxy-3-oxo-1-[(3S)-2-oxopyrrolidin-3-yl]butan-2-yl]-hexahydro-1H-cyclopenta[c]pyrrole-1-carboxamide] | < 0.1 | > 10 |  | 1 to 10 |  | > 50 | < 1 | > 10 | ≥ 10 |  |  |  |  | 0.02 to 0.2 | > 10 |  | 
O=C1NCC[C@H]1C[C@H](NC(=O)[C@@H]1[C@H]2CCC[C@H]2CN1C(=O)c1cc2c(OCc3ccccc3)cccc2[nH]1)C(=O)CO [Compound 133, (1S,3aR,6aS)-2-[4-(benzyloxy)-1H-indole-2-carbonyl]-N-[(2S)-4-hydroxy-3-oxo-1-[(3S)-2-oxopyrrolidin-3-yl]butan-2-yl]-hexahydro-1H-cyclopenta[c]pyrrole-1-carboxamide] | < 0.1 | > 10 | < 0.02 | < 1 | > 10 | > 50 | < 1 | > 50 | ≥ 10 |  |  |  |  |  |  |  | 
COc1cccc2[nH]c(C(=O)N3C[C@@H]4CCC[C@@H]4[C@H]3C(=O)N[C@@H](Cn3cc[nH]c3=O)C(=O)C(=O)NC3CC3)cc12 [Compound 119] |  | > 10 | 0.2 to 2 | > 50 | > 10 | > 50 |  | > 50 | ≥ 10 | > 10 | > 50 |  |  |  |  |  | 
O=C(NC1CC1)C(=O)[C@H](C[C@@H]1CCNC1=O)NC(=O)[C@@H]1CC2(CCN1C(=O)c1cc3ccccc3[nH]1)CC2 [Compound 140, (S)—N—((S)-4-(cyclopropylamino)-3,4-dioxo-1-((S)-2-oxopyrrolidin-3-yl)butan-2-yl)-6-(1H-indole-2-carbonyl)-6-azaspiro[2.5] octane-5-carboxamide] |  | > 10 | 0.02 to 0.2 | 1 to 10 |  | > 50 | 1 to 10 | > 10 | ≥ 10 |  |  |  |  |  |  | 0.1 to 1 | 2 to 20
COc1ccc2[nH]c(C(=O)N3C[C@@H]4CCC[C@@H]4[C@H]3C(=O)N[C@@H](C[C@@H]3CCNC3=O)C(=O)CO)cc2c1OC [Compound 81, (1S,3aR,6aS)-2-(4,5-dimethoxy-1H-indole-2-carbonyl)-N-[(2S)-4-hydroxy-3-oxo-1-[(3S)-2-oxopyrrolidin-3-yl]butan-2-yl]-hexahydro-1H-cyclopenta[c]pyrrole-1-carboxamide] | 1 to 10 | > 10 | 0.02 to 0.2 | 1 to 10 |  | > 50 | 10 to 100 | > 50 | ≥ 10 |  |  | 2 to 20 |  |  |  |  | 
COc1cccc2[nH]c(C(=O)N3C[C@@H]4CCC[C@@H]4[C@H]3C(=O)N[C@@H](C[C@@H]3CCCNC3=O)C(O)S(=O)(=O)O)cc12 (stereo partly drawn) [Compound 53, sodium (2S)-2-{[(1S,3aR,6aS)-2-(4-methoxy-1H-indole-2-carbonyl)-hexahydro-1H-cyclopenta[c]pyrrol-1-yl]formamido}-1-hydroxy-3-[(3S)-2-oxopiperidin-3-yl]propane-1-sulfonate] | 0.1 to 1 | > 10 | < 0.02 | 1 to 10 |  | > 100 | < 1 | > 100 | ≥ 10 |  |  |  |  |  |  |  | 0.02 to 0.2
COc1cccc2[nH]c(C(=O)N3CCC4(CC4)C[C@H]3C(=O)N[C@@H](C[C@@H]3CCCNC3=O)C(=O)CO)cc12 [Compound 44] | 1 to 10 | > 10 | 0.02 to 0.2 | 10 to 100 |  | > 100 | 10 to 100 | > 10 | ≥ 10 |  |  |  |  |  | > 10 |  | 
O=C1NCC[C@H]1C[C@H](NC(=O)[C@@H]1[C@H]2CCC[C@H]2CN1C(=O)c1cc2c(Cl)cc(OCc3ccccc3)cc2[nH]1)C(=O)CO [Compound 130, (1S,3aR,6aS)-2-(6-(benzyloxy)-4-chloro-1H-indole-2-carbonyl)-N—((S)-4-hydroxy-3-oxo-1-((S)-2-oxopyrrolidin-3-yl)butan-2-yl)octahydrocyclopenta[c]pyrrole-1-carboxamide] | < 0.1 | > 10 | 0.02 to 0.2 | < 1 | > 10 |  | < 1 | > 10 | ≥ 10 |  |  |  | > 10 |  |  |  | 
O=C1NCC[C@H]1C[C@H](NC(=O)[C@@H]1[C@H]2CCC[C@H]2CN1C(=O)c1cc2c(Cl)c(F)cc(Cl)c2[nH]1)C(=O)CO [Compound 122, (1S,3aR,6aS)-2-(4,7-dichloro-5-fluoro-1H-indole-2-carbonyl)-N-[(2S)-4-hydroxy-3-oxo-1-[(3S)-2-oxopyrrolidin-3-yl]butan-2-yl]-hexahydro-1H-cyclopenta[c]pyrrole-1-carboxamide] | < 0.1 | > 10 | 0.02 to 0.2 | < 1 | > 10 | > 50 | < 1 | > 50 | ≥ 10 |  |  |  |  |  |  |  | 
COc1cccc2[nH]c(C(=O)N3C[C@@H]4CCC[C@@H]4[C@H]3C(=O)N[C@@H](C[C@@H]3CCNC3=O)C(=O)COCc3ccccc3)cc12 [Compound 27A, (1S,3aR,6aS)—N-[(2S)-4-(benzyloxy)-3-oxo-1-[(3S)-2-oxopyrrolidin-3-yl]butan-2-yl]-2-(4-methoxy-1H-indole-2-carbonyl)-hexahydro-1H-cyclopenta[c]pyrrole-1-carboxamide] | < 0.1 | > 10 | 0.02 to 0.2 | 1 to 10 |  | > 100 | 1 to 10 | > 10 | ≥ 10 |  |  | 2 to 20 |  |  |  |  | 
